Measurements published in patent US5750362A, “Methods for identifying substances with a potential herbicidal or growth-regulating action by means of plant transporter proteins, the use of the transporter proteins, and substances with a herbicidal and growth-regulating action” (BASF Aktiengesellschaft, priority 1993, dated 1998).
Like-named read-outs stand apart in the source and are kept apart here. Blank lines part the entries; values can stand above or below the compound they belong to.

Legend:
[1] = target: T1, sucrose transporter S21 (SoSUT1) (Spinacia oleracea, UniProt Q03411); experiment: [14C]-sucrose uptake by yeast strain SUSY7 expressing the spinach sucrose transporter; assay type: cell-based
T1 construct: expressed in transfected cells; host or cells: Saccharomyces cerevisiae SUSY7
T1 sequence (Q03411 1-525): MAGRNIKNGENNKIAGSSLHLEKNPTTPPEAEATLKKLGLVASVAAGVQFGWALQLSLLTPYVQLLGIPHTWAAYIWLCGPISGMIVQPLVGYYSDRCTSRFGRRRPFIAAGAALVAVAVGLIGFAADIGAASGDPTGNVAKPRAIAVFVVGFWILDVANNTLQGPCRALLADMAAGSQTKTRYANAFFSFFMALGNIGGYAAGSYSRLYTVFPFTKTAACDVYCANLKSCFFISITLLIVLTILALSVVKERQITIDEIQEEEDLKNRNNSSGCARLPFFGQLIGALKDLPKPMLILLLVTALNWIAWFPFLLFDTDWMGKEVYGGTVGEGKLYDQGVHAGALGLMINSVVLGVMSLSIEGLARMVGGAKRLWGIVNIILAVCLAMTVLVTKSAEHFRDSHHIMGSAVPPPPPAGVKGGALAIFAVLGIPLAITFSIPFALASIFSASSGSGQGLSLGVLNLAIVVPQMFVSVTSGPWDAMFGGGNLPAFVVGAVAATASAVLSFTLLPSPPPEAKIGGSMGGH
Procedure: Yeast cells of the strain SUSY7 (Riesmeier et al., 1992, EMBO J. 11: 4705-4713) are used to identify substances which have an inhibitory effect on sucrose transporters from spinach. Cells of this strain are transformed with a cDNA sequence which codes for the sucrose transporter S21 (SoSUT1) from spinach and which ensures expression of a functional transporter in the cells. The yeast cells are cultured in minimal medium (SD+2% (w/v) sucrose, pH 3.8) at 28° C. and harvested in the logarithmic phase (OD600 =0.6). The cells are spun down at 4000 rpm for 10 minutes and washed twice with SD medium. A cell concentration of c=50 g/l in SD medium is adjusted according to the wet weight of the cells, and 200 μl aliquot fractions are taken. Before the actual reaction, the cells are incubated in 10 mM glucose for 5 min and adjusted to pH 3.8 with MES buffer. The reaction is started by adding 200 μl of a 0.2 mmol/l [14C]-sucrose solution (3 mCi/mmol) in SD medium (pH 3.8). After 20, 60, 120, 180 and 240 seconds, 70 μl portions of the suspension are removed and pipetted into 4 ml of ice-cold water in order to stop the reaction. The cells are filtered off on glass fiber filters and washed twice with ice-cold water. The radioactivity on the filters is subsequently determined in a liquid scintillation counter. The substances to be tested are added 30 seconds before addition of the sucrose. The uptake of radiolabeled sucrose without addition of a potential inhibitor is determined as one control. Cells of the strain SUSY7 which are not transformed with cDNA sequences coding for a sucrose transporter from spinach are employed as further control.
The various tested substances, their concentration and the activity of the transporter, shown as percentage activity of the control in which no potential inhibitors were added, are indicated. Substances which specifically show an inhibitory effect on the sucrose transporter S21 (SoSUT1), are tested for their herbicidal and growth-regulating effect on whole plants.

[2] = target: T2, sucrose transporter P62 (StSUT1) (Solanum tuberosum, UniProt Q43653); experiment: [14C]-sucrose uptake by yeast strain SUSY-7-P62 (StSUT1) expressing the potato sucrose transporter; assay type: cell-based; details: [14C]-sucrose uptake, pH 3.8; tested substance 2 mM; read-out: Activity relative to the control [%]
T2 construct: whole-cell [14C]-sucrose uptake; no tag or borders given
T2 sequence (Q43653 1-516): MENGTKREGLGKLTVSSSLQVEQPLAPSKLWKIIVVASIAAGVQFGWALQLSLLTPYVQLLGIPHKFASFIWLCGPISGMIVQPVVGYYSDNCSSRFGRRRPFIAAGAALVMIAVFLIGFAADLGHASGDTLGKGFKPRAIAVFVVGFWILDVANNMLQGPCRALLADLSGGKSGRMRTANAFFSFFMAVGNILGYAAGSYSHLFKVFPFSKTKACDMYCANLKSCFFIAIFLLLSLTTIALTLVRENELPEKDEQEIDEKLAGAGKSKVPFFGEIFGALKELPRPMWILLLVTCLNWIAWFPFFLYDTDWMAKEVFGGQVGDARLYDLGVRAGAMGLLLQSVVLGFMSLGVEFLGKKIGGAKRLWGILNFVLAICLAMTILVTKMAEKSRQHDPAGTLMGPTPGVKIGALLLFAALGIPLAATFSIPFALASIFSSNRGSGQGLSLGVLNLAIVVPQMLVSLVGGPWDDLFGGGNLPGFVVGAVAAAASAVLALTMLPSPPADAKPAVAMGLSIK
Excerpt: Yeast cells of the strain SUSY7 (Riesmeier et al., 1992, EMBO J. 11: 4705-4713) are used to identify substances which have an inhibitory effect on sucrose transporters from potato. Cells of this strain are transformed with a cDNA sequence which codes for the sucrose transporter P62 (StSUT1) from potato (WO 94/00574, Riesmeier et al., 1993, Plant Cell 5:1591-1598) and which ensures expression of a functional transporter in the cells. The resulting yeast strain was called SUSY-7-P62 (StSUT1). The yeast cells are cultured in minimal medium (SD +2% (w/v) sucrose, pH 3.8) at 28° C. and harvested in the logarithmic phase (OD600 =0.6). The cells are spun down at 4000 rpm for 10 minutes and washed twice with SD medium. A cell concentration of c=50 g/l in SD medium is adjusted according to the wet weight of the cells, and 200 Al aliquot fractions are taken. Before the actual reaction, the cells are incubated in 10 mM glucose for 5 min and adjusted to pH 3.8 with MES buffer. The reaction is started by adding 200 Al of a 0.2 mmol/l [14C]-sucrose solution (3 mCi/mmol) in SD medium (pH 3.8). After 20, 60, 120, 180 and 240 seconds, 70 μl portions of the suspension are removed and pipetted into 4 ml of ice-cold water in order to stop the reaction. The cells are filtered off on glass fiber filters and washed twice with ice-cold water. The radioactivity on the filters is subsequently determined in a liquid scintillation counter. The substances to be tested are added 30 seconds before addition of the sucrose. The uptake of radiolabeled sucrose without addition of a potential inhibitor is determined as one control. Cells of the strain SUSY7 which are not transformed with cDNA sequences coding for a sucrose transporter from potato are employed as further control.
The various tested substances, their concentration and the activity of the transporter, shown as percentage activity of the control in which no potential inhibitors were added, are indicated.

[3] = test system: sucrose transporter P62 (StSUT1); experiment: Activation of sucrose transport by preincubation of the yeast cells; assay type: cell-based, Solanum tuberosum; details: for Effect on sucrose transport as a function of concentration: preincubation of yeast cells, result in words
Procedure: The transport of sucrose by the sucrose transporter P62 (StSUT1) from Solanum tuberosum can be increased by previous energizing of the yeast cells by incubation in glucose, stachyose and adenine. The same increase in transport activity is achieved by reducing the pH to pH 3.8 in the measurement. The measurement of transport to determine the activation takes place as described in Example 3 but the cells are incubated before the actual measurement not in 10 mM glucose for 5 min but in solutions of various concentrations of glucose, stachyose and adenine for 5 min. Yeast cells which are not incubated in solutions of these substances before the measurement act as control. The following table indicates the extent of activation of sucrose transport with various concentrations of glucose, stachyose and adenine compared with the control.

[4] = target: T3, ammonium transporter AMT1 (Arabidopsis thaliana, UniProt P54144); experiment: cell-based; details: [14C]-methylamine uptake
T3 construct: expressed in transfected cells; host or cells: Saccharomyces cerevisiae 26972c (mutations in MEP1 and MEP2)
T3 sequence (P54144 1-501): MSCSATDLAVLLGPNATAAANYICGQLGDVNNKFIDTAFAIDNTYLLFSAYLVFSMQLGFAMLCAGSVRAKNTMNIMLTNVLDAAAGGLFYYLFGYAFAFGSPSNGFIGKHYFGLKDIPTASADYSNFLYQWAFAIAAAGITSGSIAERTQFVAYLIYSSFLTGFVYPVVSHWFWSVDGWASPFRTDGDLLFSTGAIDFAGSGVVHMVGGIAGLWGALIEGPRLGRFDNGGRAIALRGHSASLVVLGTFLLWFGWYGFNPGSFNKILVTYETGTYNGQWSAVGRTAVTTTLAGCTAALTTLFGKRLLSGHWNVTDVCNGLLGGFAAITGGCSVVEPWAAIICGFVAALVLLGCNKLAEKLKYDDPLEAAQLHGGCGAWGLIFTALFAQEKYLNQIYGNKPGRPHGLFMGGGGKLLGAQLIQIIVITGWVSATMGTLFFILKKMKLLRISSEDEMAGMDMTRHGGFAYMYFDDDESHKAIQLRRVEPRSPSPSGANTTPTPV

[5] = [14C]-sucrose uptake, pH 3.8, tested substance 2 mM, read-out: Activity relative to the control [%]
[6] = sucrose transport after 5 min preincubation with the substance at c1 [0.2 mol/l], 200000 µM
[7] = sucrose transport after 5 min preincubation with the substance at c2 [2 mmol/l]
[8] = pH 3.8, read-out: Activity relative to the control [%]

remaining activity at 2000 µM [1, 5]: 105%
remaining activity at 2000 µM [2]: 103%
Compound: O=C(CO)[C@@H](O)[C@@H](O)[C@H](O)CO [Tagatose]

Activity relative to the control [%] ([1]; [14C]-sucrose uptake, pH 3.8, tested substance 2 mM): 80.6%
Compound: Altrose

Compound: OC[C@H]1O[C@H](OC[C@H]2O[C@H](OC[C@H]3O[C@H](O[C@]4(CO)O[C@H](CO)[C@@H](O)[C@@H]4O)[C@H](O)[C@@H](O)[C@@H]3O)[C@H](O)[C@@H](O)[C@H]2O)[C@H](O)[C@@H](O)[C@H]1O [Stachyose]
Effect on sucrose transport as a function of concentration [3]: stimulates sucrose transport at low concentrations, while this effect is reversed at high concentrations (c>0.4 mmol/l)
Activity relative to the control [%] [3, 6]: 144 ± 9%
Activity relative to the control [%] [3, 7]: 101 ± 8%

remaining activity at 2000 µM [1, 5]: 99.4%
Compound: OC[C@H]1O[C@@H](O[C@H]2[C@H](O)[C@@H](O)C(O)O[C@@H]2CO)[C@H](O)[C@@H](O)[C@@H]1O (some centres unmarked) [Cellobiose]

Compound: OC[C@H]1OC(O)[C@H](O)[C@@H](O)[C@H]1O (some centres unmarked) [Galactose]
remaining activity at 2000 µM [1, 8]: 97.7%

remaining activity at 2000 µM [1, 5]: 92.3%
Compound: OC[C@H]1O[C@H](OC[C@H]2OC(O)[C@H](O)[C@@H](O)[C@@H]2O)[C@H](O)[C@@H](O)[C@H]1O (some centres unmarked) [Melibiose]

Compound: [Cl-].[K+] [KCl]
Activity relative to the control [%] ([4]; tested substance 500 μM): 98%

Compound: Nc1ncnc2nc[nH]c12 [Adenine]
Effect on sucrose transport as a function of concentration [3]: linear relation between the adenine concentration and the increase in the sucrose transport rate
Activity relative to the control [%] [3, 6]: 141 ± 5%
Activity relative to the control [%] [3, 7]: 225 ± 6%

Compound: C(=NC1CCCCC1)=NC1CCCCC1 [DCCD]
remaining activity at 200 µM ([4]; pH 7, tested substance 200 μM, read-out: Activity relative to the control [%]): 15%

remaining activity at 2000 µM [1, 5]: 85%
remaining activity at 2000 µM [2]: 102%
Compound: O=C(CO)[C@@H](O)[C@H](O)[C@H](O)CO[C@H]1O[C@H](CO)[C@@H](O)[C@H](O)[C@H]1O [Palatinose]

Compound: [Cl-].[Rb+] [RbCl]
Activity relative to the control [%] ([4]; tested substance 500 μM): 96%

Compound: CCN [Ethylamine]
remaining activity at 500 µM ([4]; pH 7, tested substance 500 μM, read-out: Activity relative to the control [%]): 93%

remaining activity at 2000 µM [1, 5]: 81.8%
Compound: OC[C@H]1O[C@@H](O[C@H]2[C@H](O)[C@@H](O)[C@@H](O)O[C@@H]2CO)[C@H](O)[C@@H](O)[C@H]1O [α-Lactose]

Compound: OC[C@H]1OC(O)[C@@H](O)[C@@H](O)[C@@H]1O (some centres unmarked) [Mannose]
remaining activity at 2000 µM [1, 8]: 86.5%
